Experimental data published in ChEMBL document CHEMBL1201862, “PubChem BioAssay data set” (2004).
The source made the active and inactive calls.

Assays:
[1] = target: T1, Aryl hydrocarbon receptor (Homo sapiens, UniProt P35869); details: Potency;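 also: confirmatory quantitative high-throughput screen measuring activation of the AhR signaling pathway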
T1 sequence (P35869 whole entry): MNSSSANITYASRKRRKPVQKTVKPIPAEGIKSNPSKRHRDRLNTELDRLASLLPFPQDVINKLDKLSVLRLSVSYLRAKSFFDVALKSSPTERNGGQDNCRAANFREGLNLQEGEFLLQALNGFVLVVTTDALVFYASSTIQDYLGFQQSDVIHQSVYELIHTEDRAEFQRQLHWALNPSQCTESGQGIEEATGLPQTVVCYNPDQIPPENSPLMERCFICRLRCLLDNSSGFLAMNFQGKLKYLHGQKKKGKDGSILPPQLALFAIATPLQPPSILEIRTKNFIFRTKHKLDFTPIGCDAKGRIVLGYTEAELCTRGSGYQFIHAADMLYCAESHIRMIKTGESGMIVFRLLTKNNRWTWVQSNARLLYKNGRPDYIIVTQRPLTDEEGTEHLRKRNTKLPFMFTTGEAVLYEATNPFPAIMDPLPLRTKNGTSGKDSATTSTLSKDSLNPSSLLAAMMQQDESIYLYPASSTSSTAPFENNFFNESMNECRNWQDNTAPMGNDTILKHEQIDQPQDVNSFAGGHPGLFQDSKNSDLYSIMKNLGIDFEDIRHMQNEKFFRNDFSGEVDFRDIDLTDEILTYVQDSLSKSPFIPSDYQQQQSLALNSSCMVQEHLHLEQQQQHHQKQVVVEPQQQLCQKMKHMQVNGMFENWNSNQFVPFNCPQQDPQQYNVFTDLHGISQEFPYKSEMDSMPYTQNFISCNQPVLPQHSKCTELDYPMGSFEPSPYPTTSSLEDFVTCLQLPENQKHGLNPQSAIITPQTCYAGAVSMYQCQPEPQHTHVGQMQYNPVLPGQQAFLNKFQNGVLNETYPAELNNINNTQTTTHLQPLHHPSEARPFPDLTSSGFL

Steroidogenic factor 1 = Steroidogenic factor 1 (Homo sapiens, UniProt Q13285); assay: Counterscreen for inverse agonists of the liver receptor homolog-1 (LRH-1; NR5A2): Luminescence-based cell-based high throughput dose response assay to identify inverse agonists of the Steroidogenic Factor 1 Nuclear Receptor (SF1; NR5A1).; assay type: functional
[2] = StAR promoter reporter inhibition counter-screen, dose response, counter-screen for LRH-1 inverse agonist project, cell-based, luminescence, luciferase reporter (AID 651969); assay type: functional
[3] = target: Nuclear receptor subfamily 5 group A member 2 (Homo sapiens, UniProt O00482); assay type: functional, cell-based;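 also: HEK293T cells transfected with LRH-1 and a StAR promoter luciferase reporter; potency for inhibitors that lower LRH-1 driven reporter light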
Escherichia coli [4] = assay: microbe, parasite or virus in culture
Escherichia coli [5] = assay: microbe, parasite or virus in culture; remark: listed apart in the source
[6] = tested on: Streptococcus sp. 'group A'; assay: growth inhibition of control SK(-) GAS strain, dose response, counter-screen for streptokinase expression inhibitor project, luminescence, kanamycin, BacTiterGlo, confirmation (AID 1900); assay type: functional, organism-based
Streptococcus = assay: Group A Streptococcus viability loss, dose response, counter-screen for streptokinase expression inhibitor project, luminescence, BacTiterGlo (AID 1915); assay type: functional, organism-based;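 also: potency for reduction of bacterial viability or growth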
HeLa = assay: HeLa cell cytotoxicity, dose response, cytotoxicity control for MITF activator project, CellTiter-Glo luminescence, cherry-pick samples (AID 540259); assay type: functional, cell-based; details: Homo sapiens
[7] = target: 5-hydroxytryptamine receptor 5A (Homo sapiens, UniProt P47898); assay: Counterscreen for agonists of OPRM1-OPRD1 heterodimerization: luminescence-based cell-based high throughput dose response assay to identify agonists of 5-hydroxytryptamine (serotonin) 5A receptor (HTR5A). [Related pubchem assays (depositor defined):AID504326, AID504355, AID504692, AID504904, AID504905]; assay type: functional
[8] = target: Delta-type opioid receptor (Homo sapiens, UniProt P41143); assay: Counterscreen for agonists of heterodimerization of the mu 1 (OPRM1) and delta 1 (OPRD1) opioid receptors: Luminescence-based cell-based high throughput dose response assay to identify agonists of OPRD1 homodimerization. [Related pubchem assays (depositor defined):AID504326, AID504355, AID504692, AID504904, AID504905]; assay type: functional
Mu-type opioid receptor = Mu-type opioid receptor (Homo sapiens, UniProt P35372); assay: Counterscreen for agonists of heterodimerization of the mu 1 (OPRM1) and delta 1 (OPRD1) opioid receptors: Luminescence-based cell-based high throughput dose response assay to identify agonists of OPRM1 homodimerization.; assay type: functional;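 also: U2OS cells expressing OPRM1 and beta-arrestin as split beta-galactosidase partners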
[9] = target: T2, Short transient receptor potential channel 4 (Mus musculus, UniProt Q9QUQ5); assay: mouse TRPC4 channel activators, dose response, cell-based, HEK293 TRPC4/mu-opioid, Fluo-4 calcium (AID 434937); assay type: functional
T2 sequence (Q9QUQ5 whole entry): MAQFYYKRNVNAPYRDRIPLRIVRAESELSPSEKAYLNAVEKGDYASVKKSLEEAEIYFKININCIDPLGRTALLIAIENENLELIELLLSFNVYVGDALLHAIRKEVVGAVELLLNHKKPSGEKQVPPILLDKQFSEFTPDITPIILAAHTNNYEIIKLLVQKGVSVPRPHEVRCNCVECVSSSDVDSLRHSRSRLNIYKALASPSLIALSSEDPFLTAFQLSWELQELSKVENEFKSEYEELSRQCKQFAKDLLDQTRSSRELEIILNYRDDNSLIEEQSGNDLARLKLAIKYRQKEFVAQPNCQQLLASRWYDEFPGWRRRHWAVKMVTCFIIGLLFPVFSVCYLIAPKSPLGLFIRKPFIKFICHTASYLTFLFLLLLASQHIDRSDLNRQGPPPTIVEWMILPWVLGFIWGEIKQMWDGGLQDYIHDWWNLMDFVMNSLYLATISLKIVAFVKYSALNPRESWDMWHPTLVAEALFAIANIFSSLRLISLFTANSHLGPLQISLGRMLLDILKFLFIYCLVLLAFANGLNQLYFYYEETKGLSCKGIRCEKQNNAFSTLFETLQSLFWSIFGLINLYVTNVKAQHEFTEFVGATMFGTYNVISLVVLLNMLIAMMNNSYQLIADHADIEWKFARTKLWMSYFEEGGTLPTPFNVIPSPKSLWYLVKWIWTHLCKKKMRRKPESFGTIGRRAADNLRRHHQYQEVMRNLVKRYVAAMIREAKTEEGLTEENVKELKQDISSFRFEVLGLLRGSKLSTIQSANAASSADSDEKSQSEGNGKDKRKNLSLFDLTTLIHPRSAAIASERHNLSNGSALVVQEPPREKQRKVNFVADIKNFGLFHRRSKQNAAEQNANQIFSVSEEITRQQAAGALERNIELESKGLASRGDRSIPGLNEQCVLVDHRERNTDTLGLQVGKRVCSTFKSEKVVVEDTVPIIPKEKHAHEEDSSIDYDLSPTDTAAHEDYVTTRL

[10] = target: DNA dC->dU-editing enzyme APOBEC-3A (Homo sapiens, UniProt P31941); assay: SAR analysis of small molecule inhibitors of APOBEC3A DNA Deaminase via a fluorescence-based single-stranded DNA deaminase assay.; assay type: functional; details: read-out: IC50_Mean
[11] = target: DNA dC->dU-editing enzyme APOBEC-3G (Homo sapiens, UniProt Q9HC16); assay: APOBEC3G deaminase inhibitors, SAR follow-up, biochemical, fluorescence, single-stranded DNA substrate (AID 602136); assay type: functional; details: read-out: IC50_Mean
Genome polyprotein = Genome polyprotein (dengue virus type 2, UniProt P29990); assay: Dengue-2 NS5 methyltransferase inhibitors, primary screen, biochemical, confirmation dose response (AID 588689); assay type: functional
Vero = Vero cell cytotoxicity, cytotoxicity control for flavivirus capping enzyme inhibitors (AID 588742); assay type: functional; details: Chlorocebus sabaeus
[12] = target: Photoreceptor-specific nuclear receptor (Homo sapiens, UniProt Q9Y5X4); assay type: functional, cell-based;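 also: CHO-S cells with Gal4-NCOR and VP16-NR2E3 two-hybrid luciferase reporter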
[13] = target: MAP kinase-interacting serine/threonine-protein kinase 2 (Homo sapiens, UniProt Q9HBH9); assay type: functional
[14] = target: Homeodomain-interacting protein kinase 2 (Homo sapiens, UniProt Q9H2X6); assay type: functional;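 also: measured within a kinome-wide kinase profiling panel, HIPK2 being one panel member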
[15] = target: Dual specificity protein kinase CLK4 (Homo sapiens, UniProt Q9HAZ1); assay type: functional
[16] = target: Mitogen-activated protein kinase kinase kinase kinase 4 (Homo sapiens, UniProt O95819); assay type: functional
[17] = target: T3, Interleukin-1 receptor-associated kinase 4 (Homo sapiens, UniProt Q9NWZ3); assay type: functional
T3 sequence (Q9NWZ3 whole entry): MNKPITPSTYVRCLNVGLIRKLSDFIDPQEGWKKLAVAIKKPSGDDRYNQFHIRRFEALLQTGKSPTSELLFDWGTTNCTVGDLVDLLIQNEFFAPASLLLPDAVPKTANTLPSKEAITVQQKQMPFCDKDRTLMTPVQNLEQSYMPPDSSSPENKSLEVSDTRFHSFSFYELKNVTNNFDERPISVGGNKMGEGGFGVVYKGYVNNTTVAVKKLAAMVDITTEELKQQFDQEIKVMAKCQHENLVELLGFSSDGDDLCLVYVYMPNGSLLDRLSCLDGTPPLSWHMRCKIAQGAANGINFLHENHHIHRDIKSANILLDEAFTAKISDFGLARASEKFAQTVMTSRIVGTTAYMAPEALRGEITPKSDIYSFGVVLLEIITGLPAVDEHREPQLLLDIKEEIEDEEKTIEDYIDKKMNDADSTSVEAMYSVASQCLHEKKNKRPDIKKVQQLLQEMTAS

[18] = target: Cell division cycle 7-related protein kinase (Homo sapiens, UniProt O00311); assay type: functional;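 also: value obtained from a kinome-wide kinase panel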
[19] = target: Serine/threonine-protein kinase pim-1 (Homo sapiens, UniProt P11309); assay type: functional
[20] = target: Glycogen synthase kinase-3 beta (Homo sapiens, UniProt P49841); assay type: functional;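 also: value comes from a broad kinome profiling panel, with GSK3B as the panel member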
H4 = assay: Luminescence Cell-Based Dose Response HTS to Identify Activators of 5'UTR Stem-Loop Driven Prion Protein mRNA Translation in H4 Neuroglioblastoma Cells. [Related pubchem assays: 1829 (Project Summary), 1814 (Primary HTS)]; assay type: functional; details: Homo sapiens
[21] = target: Mitochondrial peptide methionine sulfoxide reductase (Bos taurus, UniProt P54149); assay type: functional;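 also: absorbance read-out, biochemical high-throughput dose-response screen for MsrA inhibitors, confirmatory; recombinant bovine MsrA coupled to E. coli TrxB with NADPH and selenocystamine; potency is for inhibitors of MsrA activity on DMSO substrate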
Protein skinhead-1 = target: T4, Protein skinhead-1 (Caenorhabditis elegans, UniProt P34707); assay type: functional
T4 sequence (P34707 whole entry): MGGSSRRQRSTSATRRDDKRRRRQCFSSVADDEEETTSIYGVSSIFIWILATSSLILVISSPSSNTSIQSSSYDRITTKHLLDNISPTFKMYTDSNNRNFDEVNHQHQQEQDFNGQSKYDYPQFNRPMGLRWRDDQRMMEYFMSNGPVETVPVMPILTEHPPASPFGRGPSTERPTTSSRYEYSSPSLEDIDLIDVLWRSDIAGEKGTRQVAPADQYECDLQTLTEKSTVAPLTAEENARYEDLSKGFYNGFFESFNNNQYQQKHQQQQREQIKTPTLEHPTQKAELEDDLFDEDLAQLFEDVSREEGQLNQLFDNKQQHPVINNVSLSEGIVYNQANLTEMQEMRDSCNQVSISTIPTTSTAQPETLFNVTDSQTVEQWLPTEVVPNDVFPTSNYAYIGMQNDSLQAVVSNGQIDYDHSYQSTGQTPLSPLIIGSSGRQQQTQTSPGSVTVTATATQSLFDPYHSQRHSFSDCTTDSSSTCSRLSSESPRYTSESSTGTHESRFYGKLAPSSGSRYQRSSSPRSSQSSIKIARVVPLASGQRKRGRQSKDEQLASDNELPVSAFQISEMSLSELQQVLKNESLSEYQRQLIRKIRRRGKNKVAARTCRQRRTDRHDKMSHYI

[22] = target: cAMP-dependent protein kinase catalytic subunit alpha (Homo sapiens, UniProt P17612); assay type: functional

Chain of Mitogen-activated protein kinase kinase kinase kinase 4 (O95819 whole entry): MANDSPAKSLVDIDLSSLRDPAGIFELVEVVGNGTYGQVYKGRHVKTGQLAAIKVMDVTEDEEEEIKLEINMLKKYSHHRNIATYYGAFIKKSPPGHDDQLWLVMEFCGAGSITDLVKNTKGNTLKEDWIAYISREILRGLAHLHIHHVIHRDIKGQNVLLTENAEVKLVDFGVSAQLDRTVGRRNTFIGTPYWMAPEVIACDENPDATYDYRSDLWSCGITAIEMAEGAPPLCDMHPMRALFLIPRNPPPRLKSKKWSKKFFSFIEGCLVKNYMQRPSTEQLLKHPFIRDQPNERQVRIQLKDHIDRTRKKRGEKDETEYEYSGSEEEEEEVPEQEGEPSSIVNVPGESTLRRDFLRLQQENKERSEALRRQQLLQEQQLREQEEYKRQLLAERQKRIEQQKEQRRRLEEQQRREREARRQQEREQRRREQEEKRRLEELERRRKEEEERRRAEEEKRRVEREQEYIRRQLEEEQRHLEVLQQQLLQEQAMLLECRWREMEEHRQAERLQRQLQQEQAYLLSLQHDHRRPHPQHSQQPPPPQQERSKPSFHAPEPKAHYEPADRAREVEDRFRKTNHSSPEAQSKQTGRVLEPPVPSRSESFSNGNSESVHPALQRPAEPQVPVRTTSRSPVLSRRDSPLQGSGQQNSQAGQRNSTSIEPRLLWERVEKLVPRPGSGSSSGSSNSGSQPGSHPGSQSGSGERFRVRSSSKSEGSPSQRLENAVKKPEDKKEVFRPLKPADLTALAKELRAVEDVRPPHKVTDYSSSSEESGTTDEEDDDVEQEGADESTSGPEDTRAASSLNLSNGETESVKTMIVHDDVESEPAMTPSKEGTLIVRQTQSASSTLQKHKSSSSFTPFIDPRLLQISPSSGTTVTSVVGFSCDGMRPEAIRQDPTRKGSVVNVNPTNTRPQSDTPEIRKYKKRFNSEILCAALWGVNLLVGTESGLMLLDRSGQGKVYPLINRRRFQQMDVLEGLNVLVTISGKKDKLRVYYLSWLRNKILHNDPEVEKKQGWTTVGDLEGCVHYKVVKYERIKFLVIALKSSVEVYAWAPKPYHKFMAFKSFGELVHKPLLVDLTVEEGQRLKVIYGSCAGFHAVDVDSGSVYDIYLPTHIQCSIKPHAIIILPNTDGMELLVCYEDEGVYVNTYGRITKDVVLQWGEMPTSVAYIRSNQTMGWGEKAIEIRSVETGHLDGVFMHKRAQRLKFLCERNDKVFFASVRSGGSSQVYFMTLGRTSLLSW
Chain of Delta-type opioid receptor (P41143 whole entry): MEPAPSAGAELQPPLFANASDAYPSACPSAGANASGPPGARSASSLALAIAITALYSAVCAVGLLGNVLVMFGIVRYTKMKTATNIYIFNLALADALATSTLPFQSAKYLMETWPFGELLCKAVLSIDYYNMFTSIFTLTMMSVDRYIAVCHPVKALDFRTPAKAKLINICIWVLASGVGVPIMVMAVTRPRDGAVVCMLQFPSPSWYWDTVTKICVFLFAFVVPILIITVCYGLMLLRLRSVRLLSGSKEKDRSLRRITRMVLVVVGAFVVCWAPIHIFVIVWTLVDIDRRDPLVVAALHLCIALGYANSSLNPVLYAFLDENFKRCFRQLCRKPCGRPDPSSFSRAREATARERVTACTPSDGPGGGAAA
Chain of Homeodomain-interacting protein kinase 2 (Q9H2X6 whole entry): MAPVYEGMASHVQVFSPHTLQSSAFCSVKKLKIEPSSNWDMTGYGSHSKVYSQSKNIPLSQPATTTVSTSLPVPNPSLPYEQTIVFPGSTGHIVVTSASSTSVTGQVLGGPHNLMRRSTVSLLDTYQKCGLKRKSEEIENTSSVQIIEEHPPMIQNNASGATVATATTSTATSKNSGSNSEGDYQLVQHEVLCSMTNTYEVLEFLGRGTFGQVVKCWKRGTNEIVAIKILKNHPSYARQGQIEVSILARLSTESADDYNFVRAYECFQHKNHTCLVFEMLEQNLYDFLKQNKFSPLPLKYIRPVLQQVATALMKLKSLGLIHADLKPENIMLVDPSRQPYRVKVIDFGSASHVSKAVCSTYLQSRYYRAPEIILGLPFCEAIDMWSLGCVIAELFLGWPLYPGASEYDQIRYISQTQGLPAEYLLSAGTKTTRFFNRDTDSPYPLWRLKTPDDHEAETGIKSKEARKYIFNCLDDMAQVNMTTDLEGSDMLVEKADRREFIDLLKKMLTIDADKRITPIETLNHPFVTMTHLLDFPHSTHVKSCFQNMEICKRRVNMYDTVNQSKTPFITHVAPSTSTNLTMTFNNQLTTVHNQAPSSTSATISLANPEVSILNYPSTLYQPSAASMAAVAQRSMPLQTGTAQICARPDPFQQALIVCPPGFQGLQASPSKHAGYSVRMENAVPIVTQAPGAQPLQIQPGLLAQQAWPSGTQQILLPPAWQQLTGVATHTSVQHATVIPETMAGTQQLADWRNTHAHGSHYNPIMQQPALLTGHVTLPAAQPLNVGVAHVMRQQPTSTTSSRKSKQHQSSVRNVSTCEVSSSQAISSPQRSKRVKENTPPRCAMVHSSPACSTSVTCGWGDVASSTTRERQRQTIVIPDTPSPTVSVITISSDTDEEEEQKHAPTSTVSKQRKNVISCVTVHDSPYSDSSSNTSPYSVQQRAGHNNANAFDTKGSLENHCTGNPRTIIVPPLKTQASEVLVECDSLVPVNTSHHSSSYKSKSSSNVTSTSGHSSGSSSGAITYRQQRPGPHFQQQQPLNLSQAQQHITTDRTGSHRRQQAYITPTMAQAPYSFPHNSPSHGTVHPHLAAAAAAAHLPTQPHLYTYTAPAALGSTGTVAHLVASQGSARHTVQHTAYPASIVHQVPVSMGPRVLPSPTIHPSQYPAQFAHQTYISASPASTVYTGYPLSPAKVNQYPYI
Chain of Glycogen synthase kinase-3 beta (P49841 whole entry): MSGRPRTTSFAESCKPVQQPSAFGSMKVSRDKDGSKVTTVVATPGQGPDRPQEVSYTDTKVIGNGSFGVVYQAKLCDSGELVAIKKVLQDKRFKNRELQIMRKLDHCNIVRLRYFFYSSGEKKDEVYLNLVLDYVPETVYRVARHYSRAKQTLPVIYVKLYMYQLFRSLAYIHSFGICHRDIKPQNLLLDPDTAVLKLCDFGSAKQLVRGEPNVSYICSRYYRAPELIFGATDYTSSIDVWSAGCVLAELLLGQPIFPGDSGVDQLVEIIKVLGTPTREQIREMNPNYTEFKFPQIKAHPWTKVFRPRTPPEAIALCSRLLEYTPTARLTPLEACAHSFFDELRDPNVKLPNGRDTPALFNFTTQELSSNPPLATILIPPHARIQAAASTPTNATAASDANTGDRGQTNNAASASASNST
Chain of Mu-type opioid receptor (P35372 whole entry): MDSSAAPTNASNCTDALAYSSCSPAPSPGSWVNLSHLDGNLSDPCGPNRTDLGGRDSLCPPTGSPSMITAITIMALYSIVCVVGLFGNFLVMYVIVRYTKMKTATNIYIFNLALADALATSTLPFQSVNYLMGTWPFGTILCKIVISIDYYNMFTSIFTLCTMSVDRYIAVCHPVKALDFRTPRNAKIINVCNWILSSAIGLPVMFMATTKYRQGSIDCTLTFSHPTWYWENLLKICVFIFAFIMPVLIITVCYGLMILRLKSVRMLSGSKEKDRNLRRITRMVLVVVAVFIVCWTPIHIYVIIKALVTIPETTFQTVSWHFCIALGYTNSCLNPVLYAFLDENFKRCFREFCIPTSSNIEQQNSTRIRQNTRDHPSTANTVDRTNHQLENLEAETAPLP
Chain of Cell division cycle 7-related protein kinase (O00311 whole entry): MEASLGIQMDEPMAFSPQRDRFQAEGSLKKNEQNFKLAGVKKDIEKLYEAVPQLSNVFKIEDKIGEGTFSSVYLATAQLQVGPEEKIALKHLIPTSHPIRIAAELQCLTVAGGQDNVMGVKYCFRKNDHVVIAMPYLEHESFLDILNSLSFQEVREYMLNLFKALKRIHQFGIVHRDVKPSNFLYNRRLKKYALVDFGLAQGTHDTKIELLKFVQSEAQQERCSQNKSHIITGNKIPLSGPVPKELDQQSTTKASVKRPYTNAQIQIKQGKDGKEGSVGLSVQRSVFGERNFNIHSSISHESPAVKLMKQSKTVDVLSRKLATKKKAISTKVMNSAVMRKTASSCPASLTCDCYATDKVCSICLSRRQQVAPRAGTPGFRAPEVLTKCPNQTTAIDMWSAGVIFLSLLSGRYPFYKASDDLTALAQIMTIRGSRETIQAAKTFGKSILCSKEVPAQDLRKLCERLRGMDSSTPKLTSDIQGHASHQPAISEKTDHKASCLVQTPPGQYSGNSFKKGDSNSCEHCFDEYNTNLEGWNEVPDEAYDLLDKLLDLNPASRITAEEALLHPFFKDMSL
Chain of MAP kinase-interacting serine/threonine-protein kinase 2 (Q9HBH9 whole entry): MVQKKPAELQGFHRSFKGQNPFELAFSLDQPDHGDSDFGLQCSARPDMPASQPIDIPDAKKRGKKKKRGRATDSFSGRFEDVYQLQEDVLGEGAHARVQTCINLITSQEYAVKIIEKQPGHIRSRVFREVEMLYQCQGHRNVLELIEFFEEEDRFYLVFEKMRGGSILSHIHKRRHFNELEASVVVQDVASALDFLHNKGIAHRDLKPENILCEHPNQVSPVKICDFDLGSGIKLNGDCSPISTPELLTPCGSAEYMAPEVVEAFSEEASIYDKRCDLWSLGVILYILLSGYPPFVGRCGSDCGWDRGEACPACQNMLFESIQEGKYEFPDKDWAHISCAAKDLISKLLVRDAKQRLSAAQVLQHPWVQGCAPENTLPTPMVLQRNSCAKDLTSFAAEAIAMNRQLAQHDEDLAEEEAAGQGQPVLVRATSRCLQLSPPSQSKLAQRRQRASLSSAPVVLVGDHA
Chain of Serine/threonine-protein kinase pim-1 (P11309 whole entry): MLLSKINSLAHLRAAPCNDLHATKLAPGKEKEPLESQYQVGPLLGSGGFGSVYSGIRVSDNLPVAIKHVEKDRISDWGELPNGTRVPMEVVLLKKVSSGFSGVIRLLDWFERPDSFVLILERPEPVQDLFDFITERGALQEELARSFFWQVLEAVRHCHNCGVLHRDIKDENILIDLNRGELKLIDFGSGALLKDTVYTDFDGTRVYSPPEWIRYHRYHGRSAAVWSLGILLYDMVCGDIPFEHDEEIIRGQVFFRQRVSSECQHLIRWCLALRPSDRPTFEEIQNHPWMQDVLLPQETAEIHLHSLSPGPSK

CCOP(=S)(OCC)Oc1nc(Cl)n(C(C)C)n1
AC50 [1]: 39.8 µM (inconclusive)

CC(=O)Nc1ccc(NC(=O)COC(=O)Cc2c[nH]c3ccccc23)cc1
IC50 (Steroidogenic factor 1): 2.07 µM (active)
IC50 [2]: 35.9 µM (inactive)
IC50 [3]: 2.64 µM (active)

CC(C)(C)c1ccc(S(=O)(=O)N2CCSC2)cc1
AC50 (Escherichia coli [4]): 31.3 µM (active)
AC50 (Escherichia coli [5]): 37.1 µM (active)

CN1CCN(c2c(F)cc3c(=O)c(C(=O)O)cn4c3c2OCN4C)CC1 [MARBOFLOXACIN]
EC50 [6]: 2.79 µM (active)
AC50 (Escherichia coli [4]): 4.63 µM (active)
EC50 (Streptococcus): 3.07 µM (active)
AC50 (Escherichia coli [5]): 1.12 µM (active)

CC(NS(=O)(=O)c1cccc(Cl)c1)C(=O)Nc1ccc(-c2nc3ccccc3s2)cc1 (stereo not drawn)
AC50 (HeLa): > 350 µM (inactive)

CCOC(=O)C1(CCOC)CCN(Cc2ccccc2-c2ccco2)CC1
EC50 [7]: > 92.5 µM (inactive)
EC50 [8]: > 92.5 µM (inactive)
EC50 (Mu-type opioid receptor): > 92.5 µM (inactive)
EC50 [9]: 0.299 µM (active)

COCc1nnc(NC(=O)Cc2ccc(Cl)cc2)s1
IC50 [10]: > 99 µM (inactive)
IC50 [11]: > 99 µM (inactive)

Cc1ccc([C@@H]2CC=C(C(=O)O)[C@H](c3ccc(C(C)(C)C)cc3)N2S(=O)(=O)c2ccc(C)cc2)cc1
IC50 (Genome polyprotein): 39.8 µM (active)
CC50 (Vero): > 40 µM (active)
IC50 [12]: 5.74 µM (active)

Cc1ccccc1-c1c(-c2ccc3[nH]nc(C)c3c2)nnn1Cc1ccccc1
Ki [13]: 0.158 µM (active)
Ki [14]: 2.51 µM (active)
Ki [15]: 0.00794 µM (active)
Ki [16]: 0.158 µM (active)
Ki [17]: > 10 µM (inactive)
Ki [18]: 0.00251 µM (active)
Ki [19]: 0.251 µM (active)
Ki [20]: 0.0126 µM (active)

Cc1ccc(Nc2c([N+](=O)[O-])nn(-c3ccccc3)[n+]2[O-])c(C)c1
EC50 (H4): 9.37 µM (active)
IC50 [21]: 155 µM (inactive)

OC(CN1CCN(C(c2ccccc2)c2ccccc2)CC1)c1ccccc1 (stereo not drawn)
EC50 [7]: > 92.6 µM (inactive)
EC50 [8]: > 92.6 µM (inactive)
EC50 (Mu-type opioid receptor): > 92.6 µM (inactive)
IC50 (Protein skinhead-1): > 100 µM (inactive)

Cc1ccc(NC(=O)c2ccccc2Cl)c(Cl)c1
AC50 (HeLa): 84.8 µM (active)

FC(F)(F)c1ccccc1CNc1nccc(-c2c[nH]c3ncccc23)n1
Ki [13]: 0.01 µM (active)
Ki [14]: 0.02 µM (active)
Ki [16]: 0.02 µM (active)
Ki [22]: 0.0631 µM (active)
Ki [17]: 0.2 µM (active)
Ki [18]: 0.00126 µM (active)
Ki [19]: 0.501 µM (active)
Ki [20]: 0.0126 µM (active)
